# Entries after “also recorded” stand apart in the source; their conditions may differ.
# System: RTS patient cells
# Assay: Intracellular ROS in RTS cells measured by oxidation of CM-H2DCFDA after DNA damage
# Format: cell-based, human
# Settings: post exposure to mitomycin C, FIG. 10E
# Source text: By transmission electron microscopy (TEM) we observed that the mitochondrial cristae were distorted and the intercristal space expanded in all the RTS fibroblasts grown under asynchronous conditions (FIG. 10A). The extent of the cristae space is known to affect the overall chemiosmotic function in the cell (Mannella, 2006). […] Apart from ATP, mitochondria also produce the reactive oxygen species (ROS). Spontaneous ROS levels are usually low in normal cells as elevation of ROS levels can result in significant damage to cell structure (Schumacker, 2006). Indeed the level of ROS in asynchronous NHF was low as determined by the oxidation of 5-(and-6)-chloromethyl-2′,7′-dichlorodihydrofluorescein diacetate, acetyl ester (CM-H2DCFDA). […] Mitochondrial mass was determined by usage of a fluorescent dye Mitotracker Red 580 (200 nM, Invitrogen). […] The cells were subsequently washed, fixed and then analyzed in a Zeiss 510 Meta system with a 40×/0.95 Con objective. The fluorescence was captured initially for NHF and the acquisition parameters were kept unchanged for the capture of the fluorescence for the RTS cells. […] The activity was measured at 412 nm at 30° C. using 10 μg for each sample. Activity was expressed as nmole/min/mg of protein. Intracellular ROS in RTS cells was measured by the oxidation of CM-H2DCFDA (4 μM, Invitrogen). […]
smiles,measurement,value
O=C1O[C@H]([C@@H](O)CO)C(O)=C1O [ascorbic acid],effect on abnormally high ROS levels in RTS cells after DNA damage,decreases the load of reactive oxygen species; also recorded: reversed this effect

# From patent US20120122085A1, “RECQL4/RECQL4 VARIANT-P53 COMPLEX FOR ALTERED MITOCHONDRIAL FUNCTION IN ROTHMUND-THOMSON SYNDROME” (NATIONAL INSTUTUTE OF IMMUNOLOGY, priority 2009, published 2012)
